Key:
ob/ob mice [1] = experiment: Insulin sensitivity by GTT and ITT, ob/ob mice; format: in vivo
Text: (§1) Since obesity is strongly associated with insulin resistance, a typical characteristic of type two diabetes, whether the CAR agonist can also improve insulin sensitivity was examined. […] The insulin sensitizing effect of TCPOBOP was also evident in ob/ob mice (FIGS. 3C and 3D).

[2] = system: PPARα and its target genes; experiment: Expression of beta-oxidation genes in liver and skeletal muscle; format: in vivo, mice
Text: (§2) The effect of TCPOBOP on the fatty acid oxidation in the liver and skeletal muscle also was investigated. […] These include the suppression of long-chain acyl-CoA dehydrogenase (Aacdl), medium-chain acyl CoA dehydrogenase (Acadm) and HMG-CoA synthase (HMGCS2).

CAR-/- mice = experiment: Lipogenic and gluconeogenic gene expression in CAR-/- mice; format: in vivo; details: C57BL/6J and SvJ129 mixed background, HFD five week
Text: The suppression of lipogenic and gluconeogenic gene expression was also seen in TCPOBOP-treated wild type mice of C57BL/6J and SvJ129 mixed background (data not shown).

HFD-fed mice [3] = experiment: Leptin and adiponectin production and food intake; format: in vivo
Text: Leptin is an adipokine primarily produced in WAT. […] HFD induced leptin mRNA expression as expected (FIG. 8A). […] The decreased production of leptin may have resulted from decreased fat mass, and the inhibition of food intake may have contributed to the anti-obesity effect.

HFD-fed mice [4] = experiment: Hepatic steatosis, adipose tissue size and adipocyte morphology; format: in vivo; details: treated five weeks
[5] = system: adipose triglyceride lipase (ATGL), hormone sensitive lipase (HSL); experiment: Lipase expression in WAT; set-up: species or system mice; details: mouse, in vivo
[6] = system: lipogenic genes (Srebp-1c, Acc-1, Fas, Scd-1) and gluconeogenic enzymes (G6p, Pepck); experiment: Lipogenic and gluconeogenic gene expression in tissues of HFD-fed mice; format: in vivo
Text: To understand the mechanisms by which CAR inhibits obesity and improves insulin sensitivity, gene expression was profiled in several relevant tissues, including the liver, skeletal muscle, white adipose tissue (WAT) and brown adipose tissue (BAT) in HFD-fed C57BL/6J mice treated with TCPOBOP for one week.
Since excessive VLDL production and triglyceride secretion contribute to the pathogenesis of hypertriglyceridemia, obesity and diabetes, VLDL secretion rate after a 5-week TCPOBOP treatment also was evaluated. […] The inhibition of VLDL secretion was consistent with the lower serum triglyceride level (data not shown) and inhibition of hepatic lipogenesis (FIG. 5A) in these animals.

[7] = system: HFD-fed C57BL/6J male mice; experiment: Insulin sensitivity by GTT and ITT, HFD-fed mice; format: in vivo; details: five weeks treatment
Text: as §1

HFD-fed mice [8] = experiment: VLDL secretion rate; format: in vivo; details: after 5-week treatment
[9] = system: BAT genes involved in energy expenditure; experiment: BAT energy expenditure gene expression and oxygen consumption; set-up: species or system mice; details: mouse, in vivo
Text: BAT plays an important role in regulating energy expenditure. The smaller BAT in TCPOBOP-treated mice prompted an examination of the expression of BAT genes involved in energy expenditure.

Cyp2b10 = details: 0.5 mg/kg once a week
HFD-fed C57BL/6j mice = experiment: Fasting serum glucose and lipid profile, HFD-fed mice; format: in vivo
Text: as §1

ob/ob mice [10] = experiment: Obesity in genetically leptin deficient ob/ob mice; format: in vivo
Text: TCPOBOP was also effective in the genetically leptin deficient and obese ob/ob mice. In this experiment, 7-week old female ob/ob mice were maintained in chow diet and treated with TCPOBOP or vehicle for eight weeks.

[11] = system: C57BL/6J mice fed with high fat diet (HFD); experiment: Prevention of high fat diet-induced obesity (body weight, MRI body composition); format: in vivo; details: male mice, HFD five weeks, 0.5 mg/kg once a week
Protocol: Eight-week male C57BL/6J mice were fed with high fat diet (HFD) for five weeks and simultaneously treated with the CAR agonist TCPOBOP (0.5 mg/kg, once a week) or vehicle (DMSO). […] The effect of TCPOBOP on the fat mass was so dramatic that the differences were obvious and significant after one week of drug treatment (FIGS. 1A-b and 1A-c). At the end of five-week treatment, the body weight differences between TCPOBOP group and vehicle group were completely accountable by the gain of fat mass in the TCPOBOP group (FIG. 1B).

[12] = system: gastrocnemius muscle derived from HFD-fed mice; experiment: Mitochondrial β-oxidation rate in gastrocnemius muscle ([14C]-oleate)
Text: as §2

ob/ob mice [13] = experiment: Fasting serum glucose and lipid profile, ob/ob mice; format: in vivo
Text: as §1

[14] = system: C57BL/6J female mice fed with HFD; experiment: Treatment of pre-existing HFD-induced obesity; format: in vivo
Protocol: To determine whether CAR activation is effective in controlling obesity in mice with pre-existing obesity, C57BL/6J female mice were fed with HFD for six weeks, followed by 6 weeks of TCPOBOP (0.5 mg/kg, once a week) treatment when mice remained on HFD.

[15] = short-term (one week) treatment
[16] = HFD-fed C57BL/6J mice, treated one week

Clc1cnc(Oc2ccc(Oc3ncc(Cl)cc3Cl)cc2)c(Cl)c1 [TCPOBOP, 1,4-bis[2-(3,5 dichloropyridyloxy)] benzene]
insulin sensitizing effect (GTT and ITT) (ob/ob mice [1]): also evident
expression of PPARα and its target genes involved in β-oxidation and ketogenesis, liver and skeletal muscle ([2]; chronic (five weeks) treatment): significantly suppressed
expression of PPARα [2, 15]: modestly suppressed
expression of genes related to β-oxidation [2, 15]: little effect
expression of lipogenic and gluconeogenic genes in liver, skeletal muscle, WAT, BAT (CAR-/- mice): none of the lipogenic and gluconeogenic genes was significantly altered
expression of adiponectin (HFD-fed mice [3]; HFD-fed mice): increased expression of adiponectin
leptin mRNA level vs vehicle-treated counterparts (HFD-fed mice [3]; HFD-fed mice): dramatically lower
leptin production at the protein level (HFD-fed mice [3]; HFD-fed mice): decreased leptin production
food intake (HFD-fed mice [3]; mouse, in vivo): significantly reduced the food intake
adipocyte morphology (HFD-fed mice [4]): adipocyte hypotrophy
hepatic steatosis (HFD-fed mice [4]): ameliorated hepatic steatosis
sizes of abdomen WAT and BAT (HFD-fed mice [4]): decreased sizes of abdomen WAT and BAT
expression of adipose triglyceride lipase (ATGL) in WAT [5]: induced in WAT
expression of hormone sensitive lipase (HSL) in WAT [5]: but not the hormone sensitive lipase (HSL)
Fas and Scd-1 gene expression in skeletal muscle, BAT and WAT [6, 16]: Significant inhibition
expression of Acc-1 in BAT [6, 16]: significantly inhibited
expression of lipogenic genes Srebp-1c, Acc-1, Fas and Scd-1 in the liver [6, 16]: suppressed the expression of lipogenic genes
expression of glucose-6-phosphatase (G6p) and phosphoenolpyruvate carboxykinase (Pepck) ([6]; after 5-week treatment): significantly inhibited
insulin sensitivity (GTT and ITT) [7]: significantly improved insulin sensitivity
VLDL secretion rate vs vehicle group (HFD-fed mice [8]): significantly reduced
BAT expression of PGC-1b, mCPT-I, LCAD, D2, UCP-1, UCP-2 and UCP-3 [9]: significantly increased
oxygen consumption [9]: increased oxygen consumption
Cyp2b10 gene expression in the liver (Cyp2b10): activation of Cyp2b10
Fasting Glucose (HFD-fed C57BL/6j mice): 102.8 ± 17.7 mg/dL
Free Fatty Acid (HFD-fed C57BL/6j mice; fasting serum): 6.8 ± 0.6 µM
Insulin (HFD-fed C57BL/6j mice; fasting serum): 1.57 ± 0.37 ng/mL
Total Cholesterol (HFD-fed C57BL/6j mice; fasting serum): 89.7 ± 5.3 mg/dL
Total Triglyceride (HFD-fed C57BL/6j mice; fasting serum): 132.8 ± 17.7 mg/dL
gain of fat mass (ob/ob mice [10]; 7-week old female ob/ob mice, chow diet, eight weeks treatment): less gain of fat mass
body weight vs vehicle group (ob/ob mice [10]; end of eight week treatment): significantly lower body weight
fat mass (ob/ob mice [10]; end of eight week treatment): deceased fat mass
lean mass (ob/ob mice [10]; end of eight week treatment): increased lean mass
lean mass, TCPOBOP vs vehicle group [11]: not significantly different
gain of body weight ([11]; after two weeks of drug treatment, vs vehicle (DMSO)): significantly inhibited gain of body weight
lean to body weight ratio ([11]; ratio decreased in vehicle-treated mice): remained steady
gain of fat mass (MRI) ([11]; vs vehicle): significantly inhibited the gain of fat mass
substrate switch on addition of pyruvate ([12]; pyruvate added to incubation buffer, vehicle mitochondria failed to switch): showed significant switch
accumulation of radiolabeled intermediates in the acid-soluble metabolite (ASM) (incomplete β-oxidation) ([12]; vs vehicle group): much more dramatic reduction
rate of [14C]-oleate oxidation to CO2 (complete β-oxidation) ([12]; vs vehicle group): modest, although significant, decrease
Free Fatty Acid (ob/ob mice [13]): 21.4 ± 1.54 µM
Total Cholesterol (ob/ob mice [13]): 90.2 ± 9.9 mg/dL
Total Triglyceride (ob/ob mice [13]): 126.3 ± 13.7 mg/dL
fat mass ([14]; HFD six weeks, then 6 weeks 0.5 mg/kg once a week on HFD): inhibition of gain of fat mass
body weight course ([14]; HFD six weeks, then 6 weeks 0.5 mg/kg once a week on HFD, vehicle group continued to gain): stabilized the mouse body weight
body weight vs vehicle group ([14]; after 5 weeks of drug treatment): significantly lower than the vehicle group

From patent US20120003335A1, “CONSTITUTIVE ANDROSTANE RECEPTOR (CAR) AS A THERAPEUTIC TARGET FOR OBESITY AND TYPE TWO DIABETES” (UNIVERSITY OF PITTSBURGH-OF THE COMMONWEALTH SYSTEM OF …, priority 2008, published 2012)
